In patent US20240335408A1, “Soluble Guanylate Cyclase Activators for Cancer and Fibrosis Treatment” (University of Pittsburgh - of the Commonwealth System of …, priority 2023, published 2024):

Experiments:
[1] = test system: luciferase (luc) expressing TRAMP-C1 cells; assay: TRAMP-C1 cell survival after single dose irradiation (bioluminescence, 96-well); type: cell-based, mouse; conditions: for survival (% of bioluminescence before irradiation): single 8 Gy dose, drugs from 4 days after irradiation for 7 days, cinaciguat, p62 inducer, enzalutamide 1 μM, 8-bromo-cGMP 100 μM, DETA-NONOate 100 M (so in the source); for effect on irradiation-induced cell death: single dose 8 Gy irradiation, TRAMP-C1 cells, preliminary studies
Procedure: FIG. 4. The effect of single-dose and fractionated irradiation on TRAMP-C1 cell survival. A) Cells were plated at 5,000 cells/well in 96-well plates and subjected to single dose irradiation of 0 or 8 Gy. Four days following irradiation cells were treated with cinaciguat (1 μM), p62 inducer (1 μM), enzalutamide (1 μM), DETA-NONOate ([…]), 8-bromo-cGMP (100 μM) or vehicle (0.1% DMSO) for 1 week. Bioluminescence was measured before and after irradiation, and following drug treatment. […] B) Determination of 6 Gy as the optimal 5-day fractionated radiation dose based on cell survival.
Effect of drugs targeting NO·-cGMP pathway, mitophagy and AR signaling on TRAMP-C1 survival after single dose irradiation and determination of optimal fractionated irradiation protocol. To assess whether promoting NO·-cGMP signaling, induction of mitophagy or AR inhibition would enhance the effect of radiation treatment, the effect of these different drugs on cultured luciferase (luc) expressing TRAMP-C1 cells was examined in a 96-well plate format. Bioluminescence was assessed before irradiation after which the cells were exposed to a single 8 Gy radiation dose. Four days after irradiation cells were treated with the different drugs for a further 7 days. […] To determine the optimal fractionated irradiation dosing protocol, fractionated irradiation protocols were examined in cultured cells over a 5-day period. […] Therefore, 6 Gy per day for 5 days can be used as a dosing protocol.
Cell culture. Luciferase expressing TRAMP-C1 cells may be maintained in DMEM supplemented with 10% FBS, 1% PenStrep, 5 μg/ml insulin and 10 nM dehydroisoandrosterone and used at 10-15 passages. For experiments in Examples 1-3 cells may be plated at 5,000 cells/well in 96-well plates.
Bioluminescence in vitro and in vivo imaging. Cells may be treated with 150 μM luciferin D and immediately placed in Tecan SPECTRA Fluor Plus plate reader for bioluminescence measurement. Readings may be averaged for each group of cells (n≥ 8) and background (empty well readings) subtracted. Mice may be anesthetized with avertin (300 mg/kg, IP), depilated and injected with 150 mg/kg luciferin D, IP. They may be […] in a BioRad ChemiDoc MP imaging system in the supine position. Bioluminescence may be imaged for 600 sec using the Chemi Hi sensitivity protocol, intensity expressed colorimetrically, superimposed over images of the mice.

[2] = test system: bladder of CyB5R3 smooth muscle conditional knockout mice; conditions: acute intraperitoneal injection; cited from earlier work
[3] = test system: Bcl-2/BAX ratio; conditions: aged mice, reversal of benign prostatic hyperplasia; previously demonstrated; cited from earlier work
[4] = test system: mouse bladder with chronic radiation cystitis; assay: Chronic radiation cystitis in mice: cystometry (CMG) and bladder collagen staining; type: in vivo
Text: FIG. 12 Effects of cinaciguat on a mouse bladder with chronic radiation cystitis. A) Cystometry (CMG), non-irradiated mouse. B) CMG, 9 weeks following bladder irradiation (10 Gy). C) CMG, irradiation+daily gavage for 2 weeks with cinaciguat. D) Active and (E-F) passive length-tensions from irradiated+vehicle (red) vs. irradiated+cinaciguat (blue) bladder strips. G-I) Bladder cross-sections stained with Verhoeff Van Gieson solution; collagen is stained pink. J) Collagen, % area of the bladder wall, N=4. K) bladder weight in mg, control vs. irradiated (irr)>9 wks; N=5 ea.
Furthermore, irradiation decreases bladder weight by approximately 30% that could be attributed to muscle atrophy (FIG. 12 (K)).

[5] = given via i.v. drip; cited from earlier work
[6] = test system: sGCα1, Bcl-2/BAX and NF-κβ; assay: Immunolocalization of sGCα1, Bcl-2/BAX and NF-κβ in orthotopic TRAMP-C1 tumor sections; type: in vivo, mouse; conditions: fractionated irradiation plus 1 mg/kg/day for two weeks
Procedure: FIGS. 7A and 7B. Alterations in the sGCα1, Bcl-2/BAX ratio and NF-κβ nuclear localization in prostate tumors from non-irradiated mice, and irradiated mice treated with cinaciguat or p62 inducer based on immunolabeling intensity. A)-C) sGC α1 immunolabeling in A) non-irradiated orthotopic TRAMP-C1 tumors. B) orthotopic tumor from mouse receiving fractionated irradiation followed by two weeks of cinaciguat (1 mg/kg/day) treatment. C) orthotopic tumor from mouse receiving fractionated irradiation followed by two weeks of p62 mitophagy inducer (1 mg/kg/day) treatment. D)-F) Immunolabeling for Bcl-2 of D) non-irradiated orthotopic TRAMP-C1 tumor. E) orthotopic tumor from mouse receiving fractionated irradiation and cinaciguat treatment. F) orthotopic tumor from mouse receiving fractionated irradiation and p62 mitophagy inducer treatment. G-I) Immunolabeling for NF-κβ of G) non-irradiated orthotopic TRAMP-C1 tumor. H) orthotopic tumor from mouse receiving fractionated irradiation and cinaciguat treatment. I) orthotopic tumor of mouse receiving fractionated irradiation and p62 mitophagy inducer treatment. J) Bar chart for ratio of sGCα1 positive area to total cell area. K) Bar chart of Bcl-2 positive staining versus BAX positive staining in sequential sections from each group. […] Green fluorescence—immunolabeling, Blue—DAPI, nuclei. […]

[7] = test system: orthotopic TRAMP-C1 tumors; assay: Orthotopic TRAMP-C1 tumors after fractionated irradiation, prostate tissue weight; type: in vivo, C57BI/6 mice; conditions: 2 Gy fractions x 5 days; after one week osmotic pump 1 mg/kg/day for 14 days; vs irradiation alone
Procedure: FIG. 5. TRAMP-C1 orthotopic tumors and the effects of irradiation. A) TRAMP-C1 cells (10^7 cells/100 μl) were injected bilaterally into the ventrolateral prostatic lobes to create the orthotopic tumor mouse model. […] B) TRAMP-C1 tumor in a non-irradiated mouse 5 weeks after cell injection. C) Tumor following fractionated irradiation (2 Gy×5 days, starting 4 weeks post injection). D) Prostate wet weight in control, non-irradiated and irradiated tumor bearing animals.
FIG. 6. Bioluminescence imaging of prostate tumors and prostate size assessment following treatments. A) Image of colorimetrically expressed bioluminescence intensity superimposed over the mouse image. B) Prostates were excised from non-injected control, injected non-irradiated and injected irradiated (2 Gy×5 days) mice with or without treatments (P62 inducer or cinaciguat, 1 mg/kg/day for 2 weeks by ALZET pumps starting 1 week post irradiation). C) Timeline of tumor growth based on preliminary data.
Development of orthotopic TRAMP-C1 tumors in C57BI/6 mice and the effect of fractionated irradiation. […] At the conclusion of the treatment, tumor weights were evaluated. Without any intervention (drug or irradiation), there was a significant increase in tumor mass evaluated as total prostate tissue weight (FIG. 6 (B)).

[8] = Blood pressure and heart rate under cinaciguat treatment; type: in vivo, mice

Nc1nc2c(nc(Br)n2[C@@H]2O[C@@H]3COP(=O)(O)O[C@H]3[C@H]2O)c(=O)[nH]1 [8-bromo-cGMP]
survival (% of bioluminescence before irradiation) [1]: 65±7% | effect on irradiation-induced cell death [1]: did not enhance irradiation-induced cell death

NCCN(CCN)/[N+]([O-])=N/O [DETA-NoNoate]
survival (% of bioluminescence before irradiation) [1]: 62±13% | effect on irradiation-induced cell death ([1]; listed as DETA NoNoate): not | effect on irradiation-induced cell death ([1]; listed as DETA-NONOate): did not enhance irradiation-induced cell death

O=C(O)CCCCN(CCc1ccccc1OCc1ccc(CCc2ccccc2)cc1)Cc1ccc(C(=O)O)cc1 [cinaciguat, 4-({(4-carboxybutyl)[2-(2-{[4-(2-phenylethyl)phenyl]methoxy}phenyl)ethyl]amino}methyl) benzoic acid]
intercontractile interval (ICI) [2]: increased ICI | non-voiding contractions [2]: eliminated non-voiding contractions | Bcl-2/BAX ratio [3]: decreasing the Bcl-2/BAX ratio | bladder wall structure (collagen staining) ([4]; chronically irradiated mice, Verhoeff Van Gieson staining): bladder wall structure similar to non-irradiated controls | CMG profile ([4]; daily gavage 10 mg/kg/day starting 7 weeks post irradiation (10 Gy), 2 weeks): normalized the CMG profile | collagen content of bladder wall ([4]; doubling of collagen 9 weeks post irradiation): reversed | blood pressure effect (hypotension) [5]: induced hypotension | sGCα1, Bcl-2/BAX and NF-κβ immunolabeling in tumor [6]: all three markers were reduced | survival (% of bioluminescence before irradiation) [1]: 31±13% | effect on irradiation-induced cell death [1]: potentiated | effect on irradiation-induced cell death ([1]; listed as Cinaciguat): most effective in promoting irradiation-induced tumor cell death | tumor mass evaluated as total prostate tissue weight [7]: marked decrease compared to irradiation alone | effect on blood pressure ([8]; infused post irradiation 0.1-1 mg/kg/day for 28 days via osmotic pumps, preliminary data): without adversely affecting blood pressure | effects on blood pressure and heart rate ([8]; once-a-day oral 10 mg/kg): only transient effects on blood pressure and heart rate

CNC(=O)c1ccc(N2C(=S)N(c3ccc(C#N)c(C(F)(F)F)c3)C(=O)C2(C)C)cc1F [enzalutamide]
survival (% of bioluminescence before irradiation) [1]: 80±11% | effect on irradiation-induced cell death [1]: protected the cells and not
